Reference: US8252832B2, “Kinesin inhibitors as cancer therapeutics” (Novartis AG, priority 2007, dated 2012)
Read-outs that look alike come from different tables or passages of the source.

Test system: panel of cell lines and tumor explants
Experiment: Soft agar (clonogenic) assay on cell lines and tumor explants
Assay type: cell-based, human
Design: key to Differential: panel average log(GI50) minus sample log(GI50); positive = more sensitive
Details: for Differential: average log(GI50) 0.236 minus log(GI50); for GI50: Homo sapiens
Description: Compound IIa was tested against a panel of cell lines and tumor explants in a soft agar assay as described in Fiebig, H. H., Maier, A., and Burger, A. M. (Clonogenic assay with established human tumour xenorafts: correlation of in vitro to in vivo activity as a basis for anticancer drug discovery, Eur. J. Cancer 40, 802-820 (2004).) Table 16 lists the type of cancer, the name of the sample, its GI50 (concentration needed to achieve 50% growth inhibition) value in the assay, the logarithm of the GI50 (log(GI50), and the relative sensitivity of each sample (Differential). The differential is calculated by subtracting the log(GI50) for each cell line from the average log(GI50) across the entire panel (0.236 in this case); a positive value indicates a sample that is more sensitive than average, whereas a negative value indicates a sample that is less sensitive than average.

CC(C)(C)[C@H](c1nc(-c2cc(F)ccc2F)cn1Cc1ccccc1)N(CC[C@H](N)CF)C(=O)CO [Compound IIa]
Differential (Bladder, sample 439): −0.764 | Differential (Bladder, sample 1036): 1.176 | Differential (Bladder, sample 1218): 0.530 | Differential (Bladder, sample 1228): 0.738 | Differential (Bladder, sample 1258): −0.996 | Differential (Bladder, sample 1352): 0.249 | Differential (Breast, sample 401): 0.486 | Differential (Breast, sample 449): 0.509 | Differential (Breast, sample 574): −0.764 | Differential (Breast, sample 583): 0.858 | Differential (Breast, sample 713): 0.849 | Differential (Breast, sample 857): −0.154 | Differential (Breast, sample 1162): 0.780 | Differential (Breast, sample 1322): 0.090 | Differential (Breast, sample 1384): −0.189 | Differential (Breast, sample 1398): 0.858 | Differential (Colorectal, sample 94LX): −1.054 | Differential (Colorectal, sample 158): −0.764 | Differential (Colorectal, sample 233): 0.860 | Differential (Colorectal, sample 243): −0.764 | Differential (Colorectal, sample 260): −0.764 | Differential (Colorectal, sample 268): −0.559 | Differential (Colorectal, sample 280): −0.764 | Differential (Colorectal, sample 504): 0.800 | Differential (Colorectal, sample 533): −0.007 | Differential (Colorectal, sample 609): −0.764 | Differential (Colorectal, sample 647): −0.764 | Differential (Colorectal, sample 676): −0.764 | Differential (Colorectal, sample 742): −0.036 | Differential (Colorectal, sample 975): −0.764 | Differential (Colorectal, sample 1034): 0.906 | Differential (Colorectal, sample 1044): 0.450 | Differential (Colorectal, sample 1103): 0.236 | Differential (Colorectal, sample 1297): −0.764 | Differential (Colorectal, sample 1299): −0.764 | Differential (Colorectal, sample 1729): −0.764 | Differential (Colorectal, sample 1753): −0.816 | Differential (Colorectal, sample 1783): 0.378 | Differential (Colorectal, sample 1784): −0.539 | Differential (Colorectal, sample 1788): −0.115 | Differential (Gastric, sample 209): −0.764 | Differential (Gastric, sample 214): −0.718 | Differential (Gastric, sample 1172): −0.764 | GI50 (22Rv1, Prostate, sample 22RV1, GI50 in nM, read-out: log(GI50) (converted)): 0.537 nM | GI50 (22Rv1, Prostate, sample 22RV1, read-out: GI50): 0.537 nM | GI50 (Bladder, sample 439, GI50 in nM, read-out: log(GI50) (converted)): ≥ 10 nM | GI50 (Bladder, sample 439, read-out: GI50): 10 nM | GI50 (Bladder, sample 1036, GI50 in nM, read-out: log(GI50) (converted)): 0.115 nM | GI50 (Bladder, sample 1036, read-out: GI50): 0.115 nM | GI50 (Bladder, sample 1218, GI50 in nM, read-out: log(GI50) (converted)): 0.509 nM | GI50 (Bladder, sample 1218, read-out: GI50): 0.509 nM | GI50 (Bladder, sample 1228, GI50 in nM, read-out: log(GI50) (converted)): 0.315 nM | GI50 (Bladder, sample 1228, read-out: GI50): 0.315 nM | GI50 (Bladder, sample 1258, GI50 in nM, read-out: log(GI50) (converted)): 17.1 nM | GI50 (Bladder, sample 1258, read-out: GI50): 17.1 nM | GI50 (Bladder, sample 1352, GI50 in nM, read-out: log(GI50) (converted)): 0.973 nM | GI50 (Bladder, sample 1352, read-out: GI50): 0.972 nM | GI50 (Breast, sample 401, GI50 in nM, read-out: log(GI50) (converted)): 0.564 nM | GI50 (Breast, sample 401, read-out: GI50): 0.563 nM | GI50 (Breast, sample 449, GI50 in nM, read-out: log(GI50) (converted)): 0.535 nM | GI50 (Breast, sample 449, read-out: GI50): 0.534 nM | GI50 (Breast, sample 574, GI50 in nM, read-out: log(GI50) (converted)): ≥ 10 nM | GI50 (Breast, sample 574, read-out: GI50): 10 nM | GI50 (Breast, sample 583, GI50 in nM, read-out: log(GI50) (converted)): 0.239 nM | GI50 (Breast, sample 583, read-out: GI50): 0.239 nM | GI50 (Breast, sample 713, GI50 in nM, read-out: log(GI50) (converted)): 0.244 nM | GI50 (Breast, sample 713, read-out: GI50): 0.244 nM | GI50 (Breast, sample 857, GI50 in nM, read-out: log(GI50) (converted)): 2.45 nM | GI50 (Breast, sample 857, read-out: GI50): 2.46 nM | GI50 (Breast, sample 1162, GI50 in nM, read-out: log(GI50) (converted)): 0.286 nM | GI50 (Breast, sample 1162, read-out: GI50): 0.286 nM | GI50 (Breast, sample 1322, GI50 in nM, read-out: log(GI50) (converted)): 1.4 nM | GI50 (Breast, sample 1322, read-out: GI50): 1.4 nM | GI50 (Breast, sample 1384, GI50 in nM, read-out: log(GI50) (converted)): 2.67 nM | GI50 (Breast, sample 1384, read-out: GI50): 2.67 nM | GI50 (Breast, sample 1398, GI50 in nM, read-out: log(GI50) (converted)): 0.239 nM | GI50 (Breast, sample 1398, read-out: GI50): 0.239 nM | GI50 (CCRF-CEM, Leukemia (ALL), sample CCRFCEM, GI50 in nM, read-out: log(GI50) (converted)): 0.287 nM | GI50 (CCRF-CEM, Leukemia (ALL), sample CCRFCEM, read-out: GI50): 0.287 nM | GI50 (Colorectal, sample 94LX, GI50 in nM, read-out: log(GI50) (converted)): 19.5 nM | GI50 (Colorectal, sample 94LX, read-out: GI50): 19.5 nM | GI50 (Colorectal, sample 158, GI50 in nM, read-out: log(GI50) (converted)): ≥ 10 nM | GI50 (Colorectal, sample 158, read-out: GI50): 10 nM | GI50 (Colorectal, sample 233, GI50 in nM, read-out: log(GI50) (converted)): 0.238 nM | GI50 (Colorectal, sample 233, read-out: GI50): 0.238 nM | GI50 (Colorectal, sample 243, GI50 in nM, read-out: log(GI50) (converted)): ≥ 10 nM | GI50 (Colorectal, sample 243, read-out: GI50): 10 nM | GI50 (Colorectal, sample 260, GI50 in nM, read-out: log(GI50) (converted)): ≥ 10 nM | GI50 (Colorectal, sample 260, read-out: GI50): 10 nM | GI50 (Colorectal, sample 268, GI50 in nM, read-out: log(GI50) (converted)): 6.24 nM | GI50 (Colorectal, sample 268, read-out: GI50): 6.24 nM | GI50 (Colorectal, sample 280, GI50 in nM, read-out: log(GI50) (converted)): ≥ 10 nM | GI50 (Colorectal, sample 280, read-out: GI50): 10 nM | GI50 (Colorectal, sample 504, GI50 in nM, read-out: log(GI50) (converted)): 0.273 nM | GI50 (Colorectal, sample 504, read-out: GI50): 0.273 nM | GI50 (Colorectal, sample 533, GI50 in nM, read-out: log(GI50) (converted)): 1.75 nM | GI50 (Colorectal, sample 533, read-out: GI50): 1.75 nM | GI50 (Colorectal, sample 609, GI50 in nM, read-out: log(GI50) (converted)): ≥ 10 nM | GI50 (Colorectal, sample 609, read-out: GI50): 10 nM | GI50 (Colorectal, sample 647, GI50 in nM, read-out: log(GI50) (converted)): ≥ 10 nM | GI50 (Colorectal, sample 647, read-out: GI50): 10 nM | GI50 (Colorectal, sample 676, GI50 in nM, read-out: log(GI50) (converted)): ≥ 10 nM | GI50 (Colorectal, sample 676, read-out: GI50): 10 nM | GI50 (Colorectal, sample 742, GI50 in nM, read-out: log(GI50) (converted)): 1.87 nM | GI50 (Colorectal, sample 742, read-out: GI50): 1.87 nM | GI50 (Colorectal, sample 975, GI50 in nM, read-out: log(GI50) (converted)): ≥ 10 nM | GI50 (Colorectal, sample 975, read-out: GI50): 10 nM | GI50 (Colorectal, sample 1034, GI50 in nM, read-out: log(GI50) (converted)): 0.214 nM | GI50 (Colorectal, sample 1034, read-out: GI50): 0.214 nM | GI50 (Colorectal, sample 1044, GI50 in nM, read-out: log(GI50) (converted)): 0.612 nM | GI50 (Colorectal, sample 1044, read-out: GI50): 0.612 nM | GI50 (Colorectal, sample 1103, GI50 in nM, read-out: log(GI50) (converted)): 1 nM | GI50 (Colorectal, sample 1103, read-out: GI50): 1 nM | GI50 (Colorectal, sample 1297, GI50 in nM, read-out: log(GI50) (converted)): ≥ 10 nM | GI50 (Colorectal, sample 1297, read-out: GI50): 10 nM | GI50 (Colorectal, sample 1299, GI50 in nM, read-out: log(GI50) (converted)): ≥ 10 nM | GI50 (Colorectal, sample 1299, read-out: GI50): 10 nM | GI50 (Colorectal, sample 1729, GI50 in nM, read-out: log(GI50) (converted)): ≥ 10 nM | GI50 (Colorectal, sample 1729, read-out: GI50): 10 nM | GI50 (Colorectal, sample 1753, GI50 in nM, read-out: log(GI50) (converted)): 11.3 nM | GI50 (Colorectal, sample 1753, read-out: GI50): 11.3 nM | GI50 (Colorectal, sample 1783, GI50 in nM, read-out: log(GI50) (converted)): 0.721 nM | GI50 (Colorectal, sample 1783, read-out: GI50): 0.721 nM | GI50 (Colorectal, sample 1784, GI50 in nM, read-out: log(GI50) (converted)): 5.97 nM | GI50 (Colorectal, sample 1784, read-out: GI50): 5.97 nM | GI50 (Colorectal, sample 1788, GI50 in nM, read-out: log(GI50) (converted)): 2.24 nM | GI50 (Colorectal, sample 1788, read-out: GI50): 2.25 nM | GI50 (DU-145, Prostate, sample DU145, GI50 in nM, read-out: log(GI50) (converted)): 1 nM | GI50 (DU-145, Prostate, sample DU145, read-out: GI50): 1 nM | GI50 (Gastric, sample 209, GI50 in nM, read-out: log(GI50) (converted)): ≥ 10 nM | GI50 (Gastric, sample 209, read-out: GI50): 10 nM | GI50 (Gastric, sample 214, GI50 in nM, read-out: log(GI50) (converted)): 8.99 nM | GI50 (Gastric, sample 214, read-out: GI50): 9 nM | GI50 (Gastric, sample 1172, GI50 in nM, read-out: log(GI50) (converted)): ≥ 10 nM | GI50 (Gastric, sample 1172, read-out: GI50): 10 nM | GI50 (Jurkat, Leukemia (ALL), sample JURKAT, GI50 in nM, read-out: log(GI50) (converted)): 0.106 nM | GI50 (Jurkat, Leukemia (ALL), sample JURKAT, read-out: GI50): 0.106 nM | GI50 (K562, Leukemia (CML), sample K562, GI50 in nM, read-out: log(GI50) (converted)): 0.27 nM | GI50 (K562, Leukemia (CML), sample K562, read-out: GI50): 0.27 nM | GI50 (MOLT-4, Leukemia (ALL), sample MOLT4, GI50 in nM, read-out: log(GI50) (converted)): 0.877 nM
